Consider 31 compounds from patent US20140221374A1, “RAF KINASE INHIBITORS” (Ruga Corporation, priority 2011, published 2014).

Assay [1] concerns the target V600E-mutated B-RAF (Homo sapiens, UniProt P15056, V600E). In words: In vitro assay for inhibition of mutant B-RAF kinase (recombinant V600E-mutated B-RAF, MEK (K97R) substrate). The assay is classed as biochemical. Particulars: 10 nM recombinant V600E-mutated B-RAF. How it is done:
The ability of compounds described herein to inhibit RAF kinase activity were determined from biochemical kinase inhibition assays using recombinant RAF proteins as known in the art.
Solutions of varying concentrations of test compounds or vehicle were added to 10 nM recombinant V600E-mutated B-RAF proteins incubated in the presence of different concentrations of ATP and […] (K97R) as substrate, as previously described (Wilhelm, S. M., et al., Cancer Res., 64: 7099-7109, 2004; Mason, C. S., et al.; EMBO J. 18: 2137-2.148, 1999; Marais, R., et al., J. Biol. Chem., 272: 4378-4383, 1997). At least triplicate determinations for each individual test compound concentration were made and data plotted as mean±standard deviation relative to the control vehicle.

The subject of assay [2] is A375 cells (V600E activated B-RAF). In words: In vitro tumor cell growth inhibition, MTT, 72 hours. The assay is classed as cell-based. The following applies: Homo sapiens, A-375, 72 hours incubation. How it is done:
Briefly, growth inhibition of cells containing V600E activated B-RAF (A375, Colo205) versus cell lines with wild-type B-RAF (A431) were measured under anchorage-dependent conditions using MTT (3-(4,5-dimethylthiazol-2-yl)-2,5-diphenyltetrazolium bromide), following 72 hours incubation with either compound or vehicle, as previously described (Haass, N. K., et al., Clinical Cancer Res., 14: 230-239, 2008): Cell lines are obtained from the American Type Tissue Culture Collection (Maryland, USA) and cultured in media containing heat-inactivated 10% fetal bovine serum. Cell cultures were also maintained in 10 U/mL, penicillin, 100 μg/mL streptomycin and 2 mM glutamine. At least triplicate determinations for each individual test compound concentration were made and data plotted as mean±standard deviation relative to the control vehicle.

Sequence of V600E-mutated B-RAF (P15056 whole entry V600E): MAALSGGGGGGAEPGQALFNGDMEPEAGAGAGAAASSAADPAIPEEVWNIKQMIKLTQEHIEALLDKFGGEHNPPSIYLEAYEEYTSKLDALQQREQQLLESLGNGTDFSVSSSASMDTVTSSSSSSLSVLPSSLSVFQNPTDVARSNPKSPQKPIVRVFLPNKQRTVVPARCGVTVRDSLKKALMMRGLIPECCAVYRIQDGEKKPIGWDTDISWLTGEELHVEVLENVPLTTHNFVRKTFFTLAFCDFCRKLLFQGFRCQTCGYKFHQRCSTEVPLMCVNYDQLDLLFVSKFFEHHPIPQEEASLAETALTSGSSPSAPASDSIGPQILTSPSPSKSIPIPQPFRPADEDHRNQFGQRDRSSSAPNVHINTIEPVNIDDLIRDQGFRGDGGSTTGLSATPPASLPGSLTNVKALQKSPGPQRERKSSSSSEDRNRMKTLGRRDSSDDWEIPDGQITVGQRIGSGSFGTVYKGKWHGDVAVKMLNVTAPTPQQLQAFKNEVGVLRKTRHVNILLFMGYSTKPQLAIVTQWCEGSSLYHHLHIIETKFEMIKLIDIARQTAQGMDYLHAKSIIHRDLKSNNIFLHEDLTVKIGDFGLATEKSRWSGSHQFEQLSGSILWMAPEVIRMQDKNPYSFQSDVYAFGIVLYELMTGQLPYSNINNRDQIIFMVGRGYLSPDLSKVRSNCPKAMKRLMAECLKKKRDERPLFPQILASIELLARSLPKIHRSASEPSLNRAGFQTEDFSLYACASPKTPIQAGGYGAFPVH

As a reminder, the IC50 is the concentration that inhibits the measured activity by half. `O=C(Nc1ccc(Cl)cc1)Nc1cccc(-c2sc(N3CCOCC3)nc2-c2ccncc2)c1` [Example 33, 1-(4-chlorophenyl)-3-(3-(2-morpholino-4-(pyridin-4-yl)thiazol-5-yl)phenyl)urea]: the half-maximal inhibitory concentration (IC50) in assay [1] is not above 0.1 µM; in assay [2], 1 to 10 µM.
As for `Cc1nc(-c2ccncc2)c(-c2cccc(NC(=O)Nc3ccc(Cl)cc3)c2F)s1` [Example 18, 1-(4-chlorophenyl)-3-(2-fluoro-3-(2-methyl-4-(pyridin-4-yl)thiazol-5-yl)phenyl)urea], the concentration for half-maximal inhibition (IC50) in assay [1] was 0.1 to 1 µM.
For `O=C(Nc1ccc(C(F)(F)F)cc1)Nc1cccc(-c2sc(NCCN3CCOCC3)nc2-c2ccncc2)c1` [Example 37, 1-(3-(2-(2-morpholinoethylamino)-4-(pyridin-4-yl)thiazol-5-yl)phenyl)-3-(4-(trifluoromethyl)phenyl)urea], the results for the IC50 in assay [1] and in assay [2] were not above 0.1 µM and 1 to 10 µM, respectively.
As for `Cc1ccc(NC(=O)Nc2cccc(-c3sc(C(C)(C)C)nc3-c3ccnc(NCCN4CCCC4)c3)c2)cc1` [Example 31, 1-(3-(2-tert-butyl-4-(2-(2-(pyrrolidin-1-yl)ethylamino)pyridin-4-yl)thiazol-5-yl)phenyl)-3-p-tolylurea], the IC50 in assay [1] was not above 0.1 µM.
The same measure, in the same setting: next, `Cc1nc(-c2ccncc2)c(-c2cccc(NC(=O)Nc3c(F)cccc3F)c2)s1` [Example 6, 1-(2,6-difluorophenyl)-3-(3-(2-methyl-4-(pyridin-4-yl)thiazol-5-yl)phenyl)urea]: 0.1 to 1 µM.
Still for that read-out and setting: next, `Nc1nc(-c2ccncc2)c(-c2ccc(F)c(NC(=O)Nc3ccc(Cl)cc3)c2)s1` [Example 40, 1-(5-(2-amino-4-(pyridin-4-yl)thiazol-5-yl)-2-fluorophenyl)-3-(4-chlorophenyl)urea]: not above 0.1 µM; `Cc1ccc(CC(=O)Nc2cccc(-c3sc(C)nc3-c3ccnc(N)c3)c2)cc1` [Example 45, N-[3-(2-Methyl-4-(2-aminopyridin-4-yl)-thiazol-5-yl)-phenyl]-p-tolylacetamide]: 0.1 to 1 µM.
Take `O=C(Nc1ccc(Cl)cc1)Nc1cc(-c2sc(NCCN3CCOCC3)nc2-c2ccncc2)ccc1F` [Example 36, 1-(4-chlorophenyl)-3-(2-fluoro-5-(2-(2-morpholinoethylamino)-4-(pyridin-4-yl)thiazol-5-yl)phenyl)urea]: the IC50 in assay [1] was not above 0.1 µM.
Take `Cc1nc(-c2ccncc2)c(-c2cccc(NS(=O)(=O)c3c(F)cccc3F)c2)s1` [Example 42, 2,6-difluoro-N-(3-(2-methyl-4-(pyridin-4-yl)thiazol-5-yl)phenyl)benzenesulfonamide]: in assay [1], the half-maximal inhibitory concentration (IC50) fell in the range of 0.1 to 1 µM.
In the case of `CCn1cc(-c2cccc(N(O)C(=O)Nc3ccc(C(F)(F)F)cc3)c2)c(-c2ccncc2)n1` [Example 63, 1-(3-(1-ethyl-3-(pyridin-4-yl)-1H-pyrazol-4-yl)phenyl)-1-hydroxy-3-(4-(trifluoromethyl)phenyl)urea], the figures for the IC50 in assay [1] and in assay [2] were not above 0.1 µM and 1 to 10 µM, respectively.
As for `Cc1ccc(NC(=S)Nc2cccc(-c3sc(C)nc3-c3ccncc3)c2)cc1` [Example 19, 1-(3-(2-methyl-4-(pyridin-4-yl)thiazol-5-yl)phenyl)-3-p-tolylthiourea], the IC50 in assay [1] is not above 0.1 µM.
Regarding `CCn1cc(-c2cccc(NC(=O)Nc3ccc(Cl)cc3)c2F)c(-c2ccncc2)n1` [Example 49, 1-(4-chlorophenyl)-3-(3-(1-ethyl-3-(pyridin-4-yl)-1H-pyrazol-4-yl)-2-fluorophenyl)urea], the IC50 is not above 0.1 µM in assay [1] and 0.1 to 1 µM in assay [2].
Take `Cc1nc(-c2ccnc(N)c2)c(-c2ccc(F)c(NC(=O)Nc3ccc(Cl)cc3)c2)s1` [Example 22, 1-(5-(4-(2-aminopyridin-4-yl)-2-methylthiazol-5-yl)-2-fluorophenyl)-3-(4-chlorophenyl)urea]: the IC50 in assay [1] was not above 0.1 µM; in assay [2] it was 1 to 10 µM.
As for `Nc1nc(-c2ccncc2)c(-c2cccc(NC(=O)Nc3ccc(C(F)(F)F)cc3)c2F)s1` [Example 38, 1-(3-(2-amino-4-(pyridin-4-yl)thiazol-5-yl)-2-fluorophenyl)-3-(4-(trifluoromethyl)phenyl)urea], the half-maximal inhibitory concentration (IC50) in assay [1] was 0.1 to 1 µM.
Regarding `COCCNc1cc(-c2nc(C(C)(C)C)sc2-c2cccc(NC(=O)Nc3ccc(C)cc3)c2)ccn1` [Example 28, 1-(3-(2-tert-butyl-4-(2-(2-methoxyethylamino)pyridin-4-yl)thiazol-5-yl)phenyl)-3-p-tolylurea], the IC50 in assay [1] is 1 to 10 µM.
Same read-out and setting: next, `Cc1nc(-c2ccncc2)c(-c2ccc(F)c(NC(=O)Nc3ccc(Cl)c(Cl)c3)c2)s1` [Example 11, 1-(3,4-dichlorophenyl)-3-(2-fluoro-5-(2-methyl-4-(pyridin-4-yl)thiazol-5-yl)phenyl)urea]: not above 0.1 µM.
Take `Cc1nc(-c2ccncc2)c(-c2cccc(NC(=O)Nc3ccc(F)cc3)c2)s1` [Example 4, 1-(4-fluorophenyl)-3-(3-(2-methyl-4-(pyridin-4-yl)thiazol-5-yl)phenyl)urea]: in assay [1], the half-maximal inhibitory concentration (IC50) fell in the range of 0.1 to 1 µM.
The same measure, in the same setting: the same measure for `Cc1nc(-c2ccnc(N)c2)c(-c2cccc(NC(=O)Nc3ccc(Cl)cc3)c2F)s1` [Example 23, 1-(3-(4-(2-aminopyridin-4-yl)-2-methylthiazol-5-yl)-2-fluorophenyl)-3-(4-chlorophenyl)urea]: 0.1 to 1 µM.
Still for that read-out and setting: next, `Cc1ccc(NC(=O)Nc2cccc(-c3sc(C(C)(C)C)nc3-c3ccnc(NCCO)c3)c2)cc1` [Example 29, 1-(3-(2-tert-butyl-4-(2-(2-hydroxyethylamino)pyridin-4-yl)thiazol-5-yl)phenyl)-3-p-tolylurea]: not above 0.1 µM; `Cc1nc(-c2ccncc2)c(-c2cccc(NC(=O)Nc3cc(F)ccc3F)c2)s1` [Example 5, 1-(2,5-difluorophenyl)-3-(3-(2-methyl-4-(pyridin-4-yl)thiazol-5-yl)phenyl)urea]: 0.1 to 1 µM.
In the case of `Cc1nc(-c2ccncc2)c(-c2cccc(NC(=O)Nc3ccc(Cl)c(C(F)(F)F)c3)c2)s1` [Example 2, 1-(4-chloro-3-(trifluoromethyl)phenyl)-3-(3-(2-methyl-4-(pyridin-4-yl)thiazol-5-yl)phenyl)urea], the IC50 in assay [1] is not above 0.1 µM.
Take `CCn1cc(-c2cccc(NC(=O)Nc3ccc(S(=O)(=O)N4CCCC4)cc3)c2)c(-c2ccncc2)n1` [Example 58, 1-(3-(1-ethyl-3-(pyridin-4-yl)-1H-pyrazol-4-yl)phenyl)-3-(4-(pyrrolidin-1-ylsulfonyl)phenyl)urea]: in assay [1], the 50% inhibitory concentration (IC50) was more than 10 µM.
Consider `Cc1nc(-c2ccnc(N)c2)c(-c2cccc(NS(=O)(=O)c3c(F)cccc3F)c2)s1` [Example 43, N-(3-(4-(2-aminopyridin-4-yl)-2-methylthiazol-5-yl)phenyl)-2,6-difluorobenzenesulfonamide], for which, in assay [1], the IC50 fell in the range of 1 to 10 µM.
As for `Nc1nc(-c2ccncc2)c(-c2cccc(NC(=O)Nc3ccc(Cl)cc3)c2F)s1` [Example 39, 1-(3-(2-amino-4-(pyridin-4-yl)thiazol-5-yl)-2-fluorophenyl)-3-(4-chlorophenyl)urea], the 50% inhibitory concentration (IC50) in assay [1] was in the range of 1 to 10 µM.
On the same count and under the same terms, next, `Cc1ccc(NC(=O)Nc2cccc(-c3sc(C(C)(C)C)nc3-c3ccnc(NCCN(C)C)c3)c2)cc1` [Example 30, 1-(3-(2-tert-butyl-4-(2-(2-(dimethylamino)ethylamino)pyridin-4-yl)thiazol-5-yl)phenyl)-3-p-tolylurea]: not above 0.1 µM.
Turning to `COC(=O)N[C@@H](C)CNc1cc(-c2nc(C(C)(C)C)sc2-c2cccc(NC(=O)Nc3ccc(C)cc3)c2)ccn1` [Example 32, (S)-methyl 1-(4-(2-tert-butyl-5-(3-(3-p-tolylureido)phenyl)thiazol-4-yl)pyridin-2-ylamino)propan-2-ylcarbamate], in assay [1], the half-maximal inhibitory concentration (IC50) was not above 0.1 µM.
Consider `Cc1nc(-c2ccncc2)c(-c2ccc(F)c(NC(=O)Nc3ccc(Cl)cc3F)c2)s1` [Example 12, 1-(4-chloro-2-fluorophenyl)-3-(2-fluoro-5-(2-methyl-4-(pyridin-4-yl)thiazol-5-yl)phenyl)urea], for which the IC50 in assay [1] is not above 0.1 µM.
With `CC(C)(C)c1nc(-c2ccncc2)c(-c2cccc(NS(=O)(=O)c3c(F)cccc3F)c2)s1` [Example 44, N-(3-(2-tert-butyl-4-(pyridin-4-yl)thiazol-5-yl)phenyl)-2,6-difluorobenzenesulfonamide], in assay [1], the IC50 lay in the range of 0.1 to 1 µM.
The same measure, in the same setting: next, `Cc1ccc(CC(=O)Nc2cccc(-c3sc(C(C)(C)C)nc3-c3ccncc3)c2)cc1` [Example 46, N-(3-(2-tert-butyl-4-(pyridin-4-yl)thiazol-5-yl)phenyl)-2-p-tolylacetamide]: 1 to 10 µM.
Take `Cc1ccc(NC(=O)Nc2ccc(F)c(-c3sc(C)nc3-c3ccncc3)c2)cc1` [Example 8, 1-(4-fluoro-3-(2-methyl-4-(pyridin-4-yl)thiazol-5-yl)phenyl)-3-p-tolylurea]: the IC50 in assay [1] is not above 0.1 µM.
For the compound `Cc1ccc(NC(=O)Nc2cccc(-c3sc(C(C)(C)C)nc3-c3ccncc3)c2)cc1` [Example 27, 1-(3-(2-tert-butyl-4-(pyridin-4-yl)thiazol-5-yl)phenyl)-3-p-tolylurea], the half-inhibitory concentration (IC50) in assay [1] was in the range of 0.1 to 1 µM.
